Counter-ions that a name gives are not always drawn.

In patent US6949583B2, “Aminoalkoxybenzoyl-benzofuran or benzothiophene derivatives, method of preparing same and compositions containing same” (Sanofi-Synthelabo, priority 2000, dated 2005) one finds melting point data, which are given here for 31 compounds.

A word on the melting point: it is the temperature of the solid-liquid transition. In the case of `CCCCc1oc2cc(C)c(C(=O)OC(C)C)cc2c1C(=O)c1ccc(CCCN(CC)CC)cc1` (as salt: oxalate), the melting point was in the range of 155 to 157 °C. For the compound `CCCCc1oc2ccc(C(=O)OC)cc2c1C(=O)c1ccc(CC(O)CN(CCCC)CCCC)cc1` (stereo not shown) (as salt: oxalate), the melting point lay in the range of 128 to 130 °C. With `CCCCN(CCCC)CCCc1ccc(C(=O)c2c(CCC)oc3ccc(C(=O)OC(C)C)cc23)cc1` (as salt: oxalate), the melting point lay within 155 to 157 °C. For `CCCCc1oc2ccc(C(=O)OC(C)C)cc2c1C(=O)c1cc(C)c(CCCN(CCCC)CCCC)c(C)c1` (as salt: oxalate) the value was 119 to 121 °C; for `CCCCCc1oc2ccc(C(=O)OC(C)C)cc2c1C(=O)c1ccc(CCCN(CCCC)CCCC)cc1` (as salt: oxalate), 124 to 126 °C; for `CCCCc1oc2ccc(C(=O)OC)cc2c1C(=O)c1ccc(C(O)CN(CCCC)CCCC)cc1` (stereo not shown) (as salt: oxalate), 124 to 126 °C. The value for `CCCCN(CCCC)CCCc1ccc(C(=O)c2c(C3CCCCC3)oc3ccc(C(=O)OC(C)C)cc23)cc1` (as salt: oxalate) was 124 to 126 °C.

The compound `CCCCN(CCCC)CCCc1ccc(C(=O)c2c(CC(C)C)oc3ccc(C(=O)OC(C)C)cc23)cc1` (as salt: oxalate) displayed a melting point of 105 to 107 °C. Take `CCCCc1oc2ccc(C(=O)OC(C)C)cc2c1C(=O)c1ccc(CCCN(CCCC)CCCC)o1` (as salt: oxalate): the melting point lay in the range of 75 to 78 °C. The value for `CCCCc1oc2ccc(C(=O)OC(C)C)cc2c1C(=O)c1ccc(CC(O)CN(CCCC)CCCC)cc1` (stereo not shown) (as salt: oxalate) was 90 to 91 °C; that for `CCCCc1oc2ccc(C(=O)OC)cc2c1C(=O)c1ccc(CN(CCCC)CCCC)cc1` (as salt: oxalate) was 96 to 97 °C; that for `CCCCc1oc2ccc(C(=O)OC(C)C)cc2c1C(=O)c1ccc(CN(CCCC)CCCC)cc1` (as salt: oxalate) was 107 to 108 °C. The value for `CCCCN(CCCC)CCCc1ccc(C(=O)c2c(CCC(=O)OC)oc3ccc(C(=O)OC(C)C)cc23)cc1` (as salt: oxalate) was 107 to 108 °C. `CCCCc1oc2ccc(C(=O)OC(C)C)cc2c1C(=O)c1ccccc1CCCN(CCCC)CCCC` (as salt: oxalate): the melting point was 85 to 88 °C. The value for `CCCCc1oc2ccc(C(=O)OC(C)C)cc2c1C(=O)c1ccc([C@@H]([C@@H](C)O)N(CCCC)CCCC)cc1` (as salt: oxalate) was 150 to 151 °C; that for `CCCCc1oc2ccc(C(=O)OC(C)C)cc2c1C(=O)c1cccc(CCCN(CCCC)CCCC)c1` (as salt: oxalate) was 87 to 90 °C; that for `CCCCc1oc2ccc(C(=O)OC)cc2c1C(=O)c1ccc(CN2CCN(CC)CC2)cc1` (as salt: oxalate) was 220 to 221 °C. In turn, `CCCCN(CCCC)CCCc1ccc(C(=O)c2c(C)oc3ccc(C(=O)OC(C)C)cc23)cc1` (as salt: oxalate) came in with a melting point of 107 to 108 °C. Compound `CCCCc1oc2ccc(C(=O)OC(C)C)cc2c1C(=O)c1ccc(CN2CCN(CC)CC2)cc1` (as salt: oxalate) registered a melting point of 222 to 224 °C. With `CCCCN(CCCC)CCCc1ccc(C(=O)c2c(CCCC(=O)OC)oc3ccc(C(=O)OC(C)C)cc23)cc1` (as salt: oxalate), the melting point was determined as 105 °C. In turn, `CCCCc1oc2ccc(C(=O)OC(C)C)cc2c1C(=O)c1ccc([C@@H](O)[C@@H](C)N(CCCC)CCCC)cc1` (as salt: oxalate) gave a melting point of 107 to 108 °C. For `CCCCc1sc2ccc(C(=O)OC(C)C)cc2c1C(=O)c1ccc(CCCN(CCCC)CCCC)cc1` (as salt: oxalate), the melting point is 86 to 89 °C. For `CCCCc1oc2ccc(C(=O)OC(C)C)cc2c1C(=O)c1ccc(C(C)(C)CCN(CCCC)CCCC)cc1` (as salt: oxalate), the melting point lay in the range of 92 to 93 °C.

On to `CCCCc1oc2ccc(C(=O)OC(C)C)cc2c1C(=O)c1ccc(COCCN(CCCC)CCCC)cc1` (as salt: oxalate), for which the melting point was 73 °C.

For the compound `CCCCc1oc2ccc(C(=O)OC(C)C)cc2c1C(=O)c1ccc(CCCN(CCCC)CCCC)s1` (as salt: oxalate), the melting point was 100 °C. Regarding `CCCCc1oc2ccc(C(=O)OC(C)C)cc2c1C(=O)c1ccc(COCCCN(CCCC)CCCC)cc1` (as salt: oxalate), the melting point fell in the range of 73 to 74 °C. For the compound `CCCCc1oc2ccc(C(=O)OC(C)C)cc2c1C(=O)c1ccc(C(O)CN(CCCC)CCCC)cc1` (stereo not shown) (as salt: oxalate), the melting point was in the range of 134 to 135 °C.

On to `CCCCN(CCCC)COCc1ccc(C(=O)c2c(C(C)C)oc3ccc(C(=O)OC(C)C)cc23)cc1` (as salt: oxalate), for which the melting point lay within 106 to 108 °C. The compound `CCCCc1oc2ccc(C(=O)OC(C)C)cc2c1C1(c2ccc(CCCN(CCCC)CCCC)cc2)OCCO1` (as salt: oxalate) returned a melting point of 106 to 108 °C. In turn, `CCCCc1oc2ccc(C(=O)OC(C)C)cc2c1C(=O)c1cc(Cl)c(CCCN(CCCC)CCCC)c(Cl)c1` (as salt: oxalate) returned a melting point of 87 to 89 °C.

`CCCCc1oc(C)c(C(=O)OCC)c1C(=O)c1ccc(CCCN(CCCC)CCCC)cc1` (as salt: oxalate) came in with a melting point of 133 to 135 °C.
